# From patent US20060069132A1, “Azolecarboxamide herbicides” (priority 2004, published 2006)
# Columns and labels:
# eastern black nightshade = experiment: Test C pre-/postemergence herbicide test; type: in vivo, Solanum ptycanthum
# Procedure, shortened: (§1)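 Visual ratings on a 0–100 scale (100 = complete control) made versus untreated controls after 12 to 14 greenhouse days. Test chemicals, formulated in surfactant-containing non-phytotoxic solvent, applied preemergence to planted seeds or postemergence to 1- to 4-leaf plants (2 to 18 cm).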
# large crabgrass = experiment: Test A pre-/postemergence herbicide test; type: in vivo, Digitaria sanguinalis
# Procedure, shortened: (§2)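 Visual injury scores on a 0–100 scale (100 = complete control) taken about ten days post-treatment in greenhouse against untreated controls; dash means no result. Treatments: preemergence soil spray and postemergence spray to runoff on one- to two-leaf plants 2 to 10 cm tall, surfactant-containing formulation.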
# Surinam grass = experiment: Test C pre-/postemergence herbicide test; type: in vivo, Urochloa decumbens
# Procedure, shortened: as §1
# goosegrass = experiment: Test C pre-/postemergence herbicide test; type: in vivo, Eleusine indica
# Procedure, shortened: as §1
# woolly cupgrass = experiment: Test C pre-/postemergence herbicide test; type: in vivo, Eriochloa villosa
# Procedure, shortened: as §1
# soybean = experiment: Test C pre-/postemergence herbicide test; type: in vivo, Glycine max
# Procedure, shortened: as §1
# [1] = tested on: common (oilseed) sunflower; experiment: Test C pre-/postemergence herbicide test; type: in vivo, Helianthus annuus
# Procedure, shortened: as §1
# johnsongrass = experiment: Test C pre-/postemergence herbicide test; type: in vivo, Sorghum halepense
# Procedure, shortened: as §1
# rice = experiment: Test B pre-/postemergence herbicide test; type: in vivo, Oryza sativa; conditions: preemergence; for Plant response rating, Rice: 500 g ai/ha, visual rating 0-100, 0 no effect, 100 complete control
# Procedure, shortened: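 Pre: seeds sown, then sprayed. Post: 1–4-leaf plants (2–18 cm) sprayed at the same time. Paddy: flooded, treated at 2-leaf stage. Formulation: non-phytotoxic solvent with surfactant. Greenhouse 13–15 days; visual 0–100 score relative to controls.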
# velvetleaf = experiment: Test A pre-/postemergence herbicide test; type: in vivo, Abutilon theophrasti
# Procedure, shortened: as §2
# [2] = 62 g ai/ha, preemergence, scale 0 to 100
# [3] = 125 g ai/ha, scale 0 (no effect) to 100 (complete control), visual, 12 to 14 days, preemergence
# [4] = 250 g ai/ha, scale 0-100, preemergence
# [5] = Preemergence, 500 g ai/ha, scale 0 to 100, 0 no effect, 100 complete control
# [6] = Postemergence, 500 g ai/ha, 0 to 100 scale, 0 no effect, 100 complete control
# [7] = Postemergence, 2000 g ai/ha, 0 to 100 scale, 0 no effect, 100 complete control
# [8] = Preemergence, 2000 g ai/ha, visual rating, 0 to 100 scale (0 no effect, 100 complete control)
# [9] = preemergence, 500 g ai/ha, visual injury, 0 to 100 scale (0 no effect, 100 complete control)
# [10] = Postemergence, 250 g ai/ha, 0 to 100 scale, 0 no effect, 100 complete control
# [11] = Postemergence, 1000 g ai/ha, 0 to 100 scale, 0 no effect, 100 complete control
# [12] = Preemergence, 1000 g ai/ha, visual rating, 0 to 100 scale (0 no effect, 100 complete control)
# [13] = preemergence, 250 g ai/ha, visual injury, 0 to 100 scale (0 no effect, 100 complete control)
structure (smiles),measurement,setting,value
C=CCNC(=O)c1cccc(NC(=O)c2sc(C(C)(C)C)nc2CC)c1 [Compound 207],"Plant response rating, Nightshade",eastern black nightshade; [2],60
same,"Plant response rating, Nightshade",eastern black nightshade; [3],75
same,"Plant response rating, Nightshade",eastern black nightshade; [4],100
same,Nightshade plant response rating,eastern black nightshade; [5],100
same,"Crabgrass, Large plant response rating",large crabgrass; [6],20
same,"Plant response rating, Crabgrass, Large",large crabgrass; [7],65
same,"Crabgrass, Large plant response rating",large crabgrass; [8],90
same,"Crabgrass, Large plant response rating",large crabgrass; [9],95
same,"Plant response rating, Surinam Grass",Surinam grass; [2],0
same,"Plant response rating, Surinam Grass",Surinam grass; [3],0
same,"Plant response rating, Surinam Grass",Surinam grass; [4],0
same,Surinam Grass plant response rating,Surinam grass; [5],10
same,"Plant response rating, Goosegrass",goosegrass; [2],10
same,"Plant response rating, Goosegrass",goosegrass; [3],60
same,"Plant response rating, Goosegrass",goosegrass; [4],80
same,Goosegrass plant response rating,goosegrass; [5],100
same,"Plant response rating, Cupgrass, Woolly",woolly cupgrass; [2],0
same,"Plant response rating, Cupgrass, Woolly",woolly cupgrass; [3],0
same,"Plant response rating, Cupgrass, Woolly",woolly cupgrass; [4],5
same,"Cupgrass, Woolly plant response rating",woolly cupgrass; [5],40
same,"Plant response rating, Soybean",soybean; [2],0
same,"Plant response rating, Soybean",soybean; [3],0
same,"Plant response rating, Soybean",soybean; [4],0
same,Soybean plant response rating,soybean; [5],0
same,"Plant response rating, Sunflower",[1]; [2],0
same,"Plant response rating, Sunflower",[1]; [3],0
same,"Plant response rating, Sunflower",[1]; [4],0
same,Sunflower plant response rating,[1]; [5],0
same,"Plant response rating, Johnsongrass",johnsongrass; [2],0
same,"Plant response rating, Johnsongrass",johnsongrass; [3],10
same,"Plant response rating, Johnsongrass",johnsongrass; [4],40
same,Johnsongrass plant response rating,johnsongrass; [5],50
same,Rice plant response rating (0 to 100 scale),"rice; 125 g ai/ha, 0 = no effect, 100 = complete control",50
same,"Plant response rating, Rice",rice,70
same,Velvetleaf plant response rating,velvetleaf; [6],20
same,"Plant response rating, Velvetleaf",velvetleaf; [7],25
same,Velvetleaf plant response rating,velvetleaf; [8],100
same,Velvetleaf plant response rating,velvetleaf; [9],30
CCn1nc(C(C)(C)C)cc1C(=O)Nc1cccc(SC)c1 [Compound 131],"Plant response rating (0 = no effect, 100 = complete control), Nightshade","eastern black nightshade; 62 g ai/ha, preemergence",55
same,"Plant response rating, Nightshade",eastern black nightshade; [3],95
same,"Crabgrass, Large plant response rating",large crabgrass; [10],20
same,"Plant response rating, Crabgrass, Large",large crabgrass; [11],40
same,"Crabgrass, Large plant response rating",large crabgrass; [12],85
same,"Crabgrass, Large plant response rating",large crabgrass; [13],20
same,"Plant response rating (0 = no effect, 100 = complete control), Surinam Grass","Surinam grass; 62 g ai/ha, preemergence",0
same,"Plant response rating, Surinam Grass",Surinam grass; [3],0
same,"Plant response rating (0 = no effect, 100 = complete control), Goosegrass","goosegrass; 62 g ai/ha, preemergence",15
same,"Plant response rating, Goosegrass",goosegrass; [3],65
same,"Plant response rating (0 = no effect, 100 = complete control), Cupgrass, Woolly","woolly cupgrass; 62 g ai/ha, preemergence",0
same,"Plant response rating, Cupgrass, Woolly",woolly cupgrass; [3],0
same,"Plant response rating, Cupgrass, Woolly","woolly cupgrass; 250 g ai/ha, scale 0 to 100 (0 no effect, 100 complete control), visual, 12 to 14 days, preemergence",15
same,"Plant response rating (0 = no effect, 100 = complete control), Soybean","soybean; 62 g ai/ha, preemergence",0
same,"Plant response rating, Soybean",soybean; [3],0
same,"Plant response rating (0 = no effect, 100 = complete control), Sunflower","[1]; 62 g ai/ha, preemergence",0
same,"Plant response rating, Sunflower",[1]; [3],0
same,"Plant response rating (0 = no effect, 100 = complete control), Johnsongrass","johnsongrass; 62 g ai/ha, preemergence",15
same,"Plant response rating, Johnsongrass",johnsongrass; [3],40
same,"Plant response rating, Rice",rice,50
same,Velvetleaf plant response rating,velvetleaf; [10],15
same,"Plant response rating, Velvetleaf",velvetleaf; [11],10
same,Velvetleaf plant response rating,velvetleaf; [12],60
same,Velvetleaf plant response rating,velvetleaf; [13],10
